Source: publication PMC7044277 (Nature Communications, 2020)
Where “and” joins values, the source holds several entries; their conditions need not be identical. Equal values may be shown once.

Key:
Assay type in all cases: cell-based
320 non-olfactory GPCRs [1] = molecular target: T1, 320 non-olfactory GPCRs (Homo sapiens, UniProt Q96RI0)
T1 construct: expressed in transfected cells; host or cells: HTLA cells

320 non-olfactory GPCRs [2] = molecular target: T2, 320 non-olfactory GPCRs (Homo sapiens, UniProt P08588)
T2 construct: expressed in transfected cells; host or cells: HTLA cells
T2 sequence (P08588 whole entry): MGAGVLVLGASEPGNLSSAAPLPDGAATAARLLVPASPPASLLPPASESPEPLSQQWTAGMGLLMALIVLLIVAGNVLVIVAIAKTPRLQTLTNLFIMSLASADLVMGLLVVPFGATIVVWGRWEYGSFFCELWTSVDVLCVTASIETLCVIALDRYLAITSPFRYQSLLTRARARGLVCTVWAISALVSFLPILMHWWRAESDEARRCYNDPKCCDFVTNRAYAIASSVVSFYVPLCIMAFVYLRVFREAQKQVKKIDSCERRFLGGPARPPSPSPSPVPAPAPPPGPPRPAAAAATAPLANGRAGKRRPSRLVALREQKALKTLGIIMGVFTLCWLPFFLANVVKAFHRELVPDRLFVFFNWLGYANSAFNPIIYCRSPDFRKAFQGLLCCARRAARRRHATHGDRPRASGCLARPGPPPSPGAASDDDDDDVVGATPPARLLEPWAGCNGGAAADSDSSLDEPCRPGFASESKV

320 non-olfactory GPCRs [3] = molecular target: T3, 320 non-olfactory GPCRs (Homo sapiens, UniProt P51677)
T3 construct: expressed in transfected cells; host or cells: HTLA cells
T3 sequence (P51677 whole entry): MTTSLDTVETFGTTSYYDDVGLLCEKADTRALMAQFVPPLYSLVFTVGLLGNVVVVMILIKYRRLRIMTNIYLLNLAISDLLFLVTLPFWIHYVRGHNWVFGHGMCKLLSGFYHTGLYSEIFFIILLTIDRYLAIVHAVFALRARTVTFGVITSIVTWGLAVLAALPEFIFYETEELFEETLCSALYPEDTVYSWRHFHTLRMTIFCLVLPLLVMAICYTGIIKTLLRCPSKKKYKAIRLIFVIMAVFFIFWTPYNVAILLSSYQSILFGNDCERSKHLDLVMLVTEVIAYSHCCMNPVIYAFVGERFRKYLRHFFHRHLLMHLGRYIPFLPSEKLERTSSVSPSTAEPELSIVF

320 non-olfactory GPCRs [4] = molecular target: T4, 320 non-olfactory GPCRs (Homo sapiens, UniProt P35348)
T4 construct: expressed in transfected cells; host or cells: HTLA cells
T4 sequence (P35348 whole entry): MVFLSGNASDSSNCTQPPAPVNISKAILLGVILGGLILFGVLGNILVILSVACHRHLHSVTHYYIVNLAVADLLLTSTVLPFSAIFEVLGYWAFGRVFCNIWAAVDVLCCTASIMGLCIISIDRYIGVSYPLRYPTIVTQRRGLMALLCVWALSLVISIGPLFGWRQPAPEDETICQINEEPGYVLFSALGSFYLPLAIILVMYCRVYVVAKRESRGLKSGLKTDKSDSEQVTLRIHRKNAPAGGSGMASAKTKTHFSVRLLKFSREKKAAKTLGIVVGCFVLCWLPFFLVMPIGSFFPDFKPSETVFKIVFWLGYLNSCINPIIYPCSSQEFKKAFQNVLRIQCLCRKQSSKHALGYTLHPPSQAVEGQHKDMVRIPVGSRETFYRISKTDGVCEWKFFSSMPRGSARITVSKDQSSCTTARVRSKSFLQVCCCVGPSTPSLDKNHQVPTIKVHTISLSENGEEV
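Also: compound tested at 1 µM final concentration.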

T1 sequence (Q96RI0 18-385): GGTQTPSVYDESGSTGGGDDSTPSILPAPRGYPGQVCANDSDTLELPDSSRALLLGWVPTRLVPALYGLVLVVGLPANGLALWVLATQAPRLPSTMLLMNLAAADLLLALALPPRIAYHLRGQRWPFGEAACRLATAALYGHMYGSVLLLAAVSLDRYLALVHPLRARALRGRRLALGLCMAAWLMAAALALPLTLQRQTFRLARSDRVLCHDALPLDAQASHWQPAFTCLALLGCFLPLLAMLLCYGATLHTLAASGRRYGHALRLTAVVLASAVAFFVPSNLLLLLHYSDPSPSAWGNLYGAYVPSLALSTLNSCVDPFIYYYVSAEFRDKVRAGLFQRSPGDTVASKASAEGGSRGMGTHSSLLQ

In the case of `CCOc1cccc2cc(C(C)NCC3(O)CCCCC3)oc12` (stereo not shown) [O4LE6], the “Fold of Basal” value (320 non-olfactory GPCRs [1]) is reported as 0.98 and 0.6043 and 0.591 and 0.7202, the “Fold of Basal” value (320 non-olfactory GPCRs [2]) is reported as 0.9495 and 0.9531 and 1.111 and 0.8261 and the “Fold of Basal” value (320 non-olfactory GPCRs [3]) is reported as 1.539 and 1.182 and 0.9454 and 0.9656. For the same compound, the “Fold of Basal” value (320 non-olfactory GPCRs [4]) was 1.536 and 0.8942 and 1.241 and 1.268.
